Source: patent publication US12240853B2, “Compounds useful in HIV therapy” (GlaxoSmithKline Intellectual Property (No.2) Limited, priority 2019, dated 2025)
Read-outs that look alike come from different tables or passages of the source.

Assay: Example 18 cynomolgus monkey PK study (SC and IM)
Type: in vivo, cynomolgus monkeys
Conditions: male, cynomolgus monkey, plasma, read-out: Example 18 plasma concentrations
From the text: Example 18 referenced herein was made in accordance with Synthesis B. Six male cynomolgus monkeys (+1 spare) were selected from the Testing Facility's colony of non-naïve animals. The animals were assigned to the study based on acceptable health as determined by a Testing Facility veterinarian. Six animals were selected and placed into two groups of three animals each. Fasting of the animals before or after dosing was not required.
[…] […] The animals were manually restrained for dosing and were not sedated. The dose sites were clipped of hair and wiped with alcohol before dosing. All dosing was performed as detailed in the study protocol and was completed without incident.
Blood samples were collected from the study animals as detailed in the sample collection Table 39 below.
Blood samples were collected by venipuncture of a cephalic vein. For PK, blood was transferred to a blood collection tube containing NaF/Na2EDTA anticoagulant, mixed by inversion, and maintained on wet ice until processing. The blood samples were centrifuged at 2200×g for 10 minutes at 5° C. to isolate plasma. The resulting plasma samples were transferred to individual polypropylene tubes in a 96-well plate format and immediately placed on dry ice until storage at nominally −20° C. prior to shipment for analysis.
The PK plasma samples were analyzed approximately every two weeks by the Testing Facility to determine the concentration of Example 18 (prodrug) and parent using an LC-MS/MS Research Grade Assay (RGA-1) with sensitivity to 0.1 ng/mL. Following interim review of sample analysis data, analysis for Example 18 (prodrug) was discontinued after the Day 57 sample collections. The bioanalytical report and sample concentration data are presented in Tables 40 and 41, and mean concentration-time profiles are shown in FIGS. 29 and 30

[1] = intramuscular, 20 mg/kg equivalent of EFdA, IM 20 mg/kg equivalent of EFdA, Monkey 2001
[2] = intramuscular, 20 mg/kg equivalent of EFdA, IM 20 mg/kg equivalent of EFdA, Monkey 2002
[3] = intramuscular, 20 mg/kg equivalent of EFdA, IM 20 mg/kg equivalent of EFdA, Monkey 2003
[4] = sc, 20 mg/kg, SC 20 mg/kg equivalent of EFdA, Mean
[5] = sc, 20 mg/kg, SC 20 mg/kg equivalent of EFdA, Monkey 1001
[6] = sc, 20 mg/kg, SC 20 mg/kg equivalent of EFdA, Monkey 1002 (column 3)
[7] = sc, 20 mg/kg, SC 20 mg/kg equivalent of EFdA, Monkey 1002

Work on `C#C[C@]1(COC(=O)CCCCCCCCC)O[C@@H](n2cnc3c(N)nc(F)nc32)C[C@@H]1OC(=O)CCCCCCCCC` [Example 18, (2R,3S,5R)-5-(6-amino-2-fluoro-9H-purin-9-yl)-2-((decanoyloxy)methyl)-2-ethynyltetrahydrofuran-3-yl Decanoate] yielded a concentration at 0.208 days [1] of 51.3 ng/mL, a concentration at 0.292 days [1] of 30.1 ng/mL and a concentration at 1 days [1] of 6.89 ng/mL. It also gave a concentration at 2 days [1] of 0.652 ng/mL, a concentration at 3 days [1] of 0.379 ng/mL and a concentration at 8 days [1] of 0.203 ng/mL. For the same molecule, the concentration at 10 days [1] was 0.156 ng/mL, the concentration at 17 days [1] was 0.135 ng/mL and the concentration at 19 days [1] was 0.119 ng/mL. It also gave a concentration at 22 days [1] of 0.146 ng/mL, a concentration at 29 days [1] of 0.155 ng/mL and a concentration at 0.021 days [2] of 40.2 ng/mL. The concentration at 0.042 days [2] was 82.6 ng/mL, the concentration at 0.125 days [2] was 363 ng/mL and the concentration at 0.208 days [2] was 692 ng/mL. For the same molecule, the concentration at 0.292 days [2] was 821 ng/mL, the concentration at 1 days [2] was 110 ng/mL and the concentration at 2 days [2] was 0.674 ng/mL. It also gave a concentration at 3 days [2] of 0.533 ng/mL, a concentration at 8 days [2] of 0.248 ng/mL and a concentration at 10 days [2] of 0.251 ng/mL. It also gave a concentration at 17 days [2] of 0.16 ng/mL, a concentration at 19 days [2] of 0.149 ng/mL and a concentration at 22 days [2] of 0.114 ng/mL. For the same molecule, the concentration at 25 days [2] was 0.125 ng/mL, the concentration at 29 days [2] was 0.135 ng/mL and the concentration at 0.021 days [3] was 1.93 ng/mL. The concentration at 0.042 days [3] was 0.79 ng/mL, the concentration at 0.125 days [3] was 3.31 ng/mL and the concentration at 0.208 days [3] was 5.27 ng/mL. The concentration at 0.292 days [3] was 6.42 ng/mL, the concentration at 1 days [3] was 2.08 ng/mL and the concentration at 2 days [3] was 0.387 ng/mL. For the same molecule, the concentration at 3 days [3] was 0.63 ng/mL, the concentration at 8 days [3] was 0.171 ng/mL and the concentration at 10 days [3] was 0.19 ng/mL. The concentration at 17 days [3] was 0.154 ng/mL, the concentration at 19 days [3] was 0.129 ng/mL and the concentration at 22 days [3] was 0.113 ng/mL. The concentration at 25 days [3] was 0.151 ng/mL, the concentration at 46 days (intramuscular, 20 mg/kg equivalent of EFdA, IM 20 mg/kg equivalent of EFdA, Monkey 2003, 46 days) was 0.105 ng/mL and the concentration at 0.021 days [4] was 0.235 ng/mL. It also gave a concentration at 0.042 days [4] of 0.905 ng/mL, a concentration at 0.125 days [4] of 3.94 ng/mL and a concentration at 0.208 days [4] of 4.95 ng/mL. For the same molecule, the concentration at 0.292 days [4] was 4.53 ng/mL, the concentration at 1 days [4] was 1.12 ng/mL and the concentration at 2 days [4] was 0.405 ng/mL. For the same molecule, the concentration at 3 days [4] was 0.312 ng/mL, the concentration at 8 days [4] was 0.117 ng/mL and the concentration at 10 days [4] was 129 ng/mL. The concentration at 0.021 days [5] was 49.4 ng/mL, the concentration at 0.042 days [5] was 70.3 ng/mL and the concentration at 0.125 days [5] was 149 ng/mL. For the same molecule, the concentration at 0.208 days [5] was 92.8 ng/mL, the concentration at 0.292 days [5] was 146 ng/mL and the concentration at 1 days [5] was 36.5 ng/mL. It also gave a concentration at 2 days [5] of 0.734 ng/mL, a concentration at 3 days [5] of 0.694 ng/mL and a concentration at 10 days [5] of 0.146 ng/mL. The concentration at 0.021 days [6] was 0.133 ng/mL, the concentration at 0.042 days [6] was 0.179 ng/mL and the concentration at 0.125 days [6] was 2.29 ng/mL. The concentration at 0.208 days [6] was 1.91 ng/mL, the concentration at 0.292 days [6] was 2.38 ng/mL and the concentration at 1 days [6] was 0.641 ng/mL. For the same molecule, the concentration at 2 days [6] was 0.579 ng/mL, the concentration at 3 days [6] was 0.396 ng/mL and the concentration at 8 days [6] was 0.131 ng/mL. It also gave a concentration at 10 days [6] of 0.146 ng/mL, a concentration at 0.021 days [7] of 0.337 ng/mL and a concentration at 0.042 days [7] of 1.63 ng/mL. It also gave a concentration at 0.125 days [7] of 5.59 ng/mL, a concentration at 0.208 days [7] of 7.99 ng/mL and a concentration at 0.292 days [7] of 6.67 ng/mL. For the same molecule, the concentration at 1 days [7] was 1.6 ng/mL, the concentration at 2 days [7] was 0.23 ng/mL and the concentration at 3 days [7] was 0.228 ng/mL. The concentration at 8 days [7] was 0.102 ng/mL and the concentration at 10 days [7] was 0.111 ng/mL.
